Assay results taken from BindingDB's records for doi:10.1016/j.ejmech.2020.113107 (Yantai University, 2021).

Assays:
[1] = Reversal of P-glycoprotein mediated multidrug resistance in human MCF-7T cells assessed as reversal of resistance to paclitaxel-induced cytotoxicity by measuring paclitaxel IC50 at 10 uM measured after 72 hrs by MTT assay
[2] = Reversal of P-glycoprotein mediated multidrug resistance in human MCF-7T cells assessed as reversal of resistance to paclitaxel-induced cytotoxicity by measuring paclitaxel IC50 at 5 uM measured after 72 hrs by MTT assay
[3] = Reversal of P-glycoprotein mediated multidrug resistance in human KBV cells assessed as reversal of resistance to vincristine-induced cytotoxicity by measuring vincristine IC50 at 5 uM measured after 72 hrs by MTT assay
[4] = Reversal of P-glycoprotein mediated multidrug resistance in human MCF-7T cells assessed as reversal of resistance to vincristine-induced cytotoxicity by measuring vincristine IC50 at 10 uM measured after 72 hrs by MTT assay
[5] = Reversal of P-glycoprotein mediated multidrug resistance in human KBV cells assessed as reversal of resistance to paclitaxel-induced cytotoxicity by measuring paclitaxel IC50 at 5 uM measured after 72 hrs by MTT assay
[6] = Reversal of P-glycoprotein mediated multidrug resistance in human KBV cells assessed as reversal of resistance to paclitaxel-induced cytotoxicity by measuring paclitaxel IC50 at 10 uM measured after 72 hrs by MTT assay
[7] = Reversal of P-glycoprotein mediated multidrug resistance in human MCF-7T cells assessed as reversal of resistance to vincristine-induced cytotoxicity by measuring vincristine IC50 at 5 uM measured after 72 hrs by MTT assay
[8] = Reversal of P-glycoprotein mediated multidrug resistance in human KBV cells assessed as reversal of resistance to vincristine-induced cytotoxicity by measuring vincristine IC50 at 10 uM measured after 72 hrs by MTT assay

Structure (SMILES) | IC50 [1] [nM] | IC50 [2] [nM] | IC50 [3] [nM] | IC50 [4] [nM] | IC50 [5] [nM] | IC50 [6] [nM] | IC50 [7] [nM] | IC50 [8] [nM]
CC1(C)CC[C@]2(C(=O)OCc3ccccc3)CC[C@]3(C)C(=CC[C@@H]4[C@@]5(C)Cc6nccnc6[C@@](C)(COC(=O)CCC(=O)OCCOCCOCCOCCO)[C@@H]5CC[C@]43C)[C@@H]2C1 | 0.89 | 5.4 | 4 | 0.04 | 22 | 4.6 | 5.3 | 0.79
COc1cc2c(cc1OC)CN(CCc1ccc(NC(=O)c3cc(OC)c(OC)cc3NC(=O)c3cnc4ccccc4c3)cc1)CC2 | 0.26 | 3.3 | 3.3 | 0.22 | 7.6 | 4.5 | 0.71 | 2.1
CC1(C)CC[C@]2(C(=O)OCc3ccccc3)CC[C@]3(C)C(=CC[C@@H]4[C@@]5(C)Cc6nccnc6[C@@](C)(CO)[C@@H]5CC[C@]43C)[C@@H]2C1 | 1.5 | 13 | 17 | 0.03 | 59 | 16 | 6.9 | 2.2
